Experimental data from US20140147527A1, “COMPOSITIONS AND METHODS FOR TREATING EMOTIONAL-PSYCHOLOGICAL STRESS” (TSUKUBA UNIVERSITY, priority 2012, published 2014).

System: SH-SY5Y cells
Test: Cell viability assay (MTT) in SH-SY5Y cells
Assay type: cell-based, human
Conditions: H2O2 0, 50, 100, 150, 200 or 250 μM, 24 hours
Description: To determine the concentration of C. schoenanthus ethanol extracts which can be used to investigate their anti-stress effect, SH-SY5Y cells were cultured with several concentrations (1/100, 1/1000, or 1/10000 v/v dilution of C. schoenanthus ethanol extract in culturing medium) for 72 hours.
SH-SY5Y cells were treated with different concentrations of C. schoenanthus extract (at a 1/500, 1/750, 1/1000, 1/1500, or 1/2000 v/v dilution in medium) for 72 hours and cell viability was determined by MTT assay.
To evaluate whether H2O2 influences neuronal cytotoxicity, SH-SY5Y cells were treated with various concentrations of H2O2 (0, 50, 100, 150, 200, or 250 μM) for 24 hours.
A cell survival analysis was performed using 3-(4,5-Dimethylthiazol-2-yl)-2,5-diphenyltetrazolium bromide (MTT), which was dissolved in PBS to a final concentration of 5 mg/ml. […] Then, 100 μl of 10% of sodium dodecyl sulfate (SDS) was added and after overnight incubation, the absorbance was determined at 570 nm. The control wells which contained cultured cells with medium only were considered as 100% cell viability.

## OO [H2O2]
  cytotoxicity in SH-SY5Y cells: dose-dependent cytotoxicity
